# Experimental data reported in patent publication US9695155B2, “Herbicidal substituted pyrimidinyloxy benzene compounds” (E. I. DU PONT DE NEMOURS AND COMPANY, priority 2013, dated 2017).
# Tests used:
# barnyardgrass [1] = test: Test A preemergence; assay type: in vivo, Echinochloa crus-galli; details: for Barnyardgrass plant response rating: 500 g ai/ha
# Summary of the method: (§1)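 Pre- and postemergence greenhouse screen. Soil: loam + sand. Spray carrier: solvent mixture, non-phytotoxic, with surfactant. Post timing at 1–2 leaves, height 2–10 cm. Readout: visual injury on a 0–100 scale roughly 10 days after application, untreated plants as reference.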
# giant foxtail = test: Test A preemergence; assay type: in vivo, Setaria faberii; details: for Foxtail, Giant plant response rating: 500 g ai/ha
# Summary of the method: as §1
# wheat = test: Test A preemergence; assay type: in vivo, Triticum aestivum; details: for Wheat plant response rating: 500 g ai/ha
# Summary of the method: as §1
# corn = test: Test A preemergence; assay type: in vivo, Zea mays; details: for Corn plant response rating: 500 g ai/ha
# Summary of the method: as §1
# rice = test: Test B flooded paddy test; assay type: in vivo, Oryza sativa; details: Flood, 250 g ai/ha; 0 to 100 scale where 0 is no effect and 100 is complete control
# Summary of the method: (§2)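 Scores from 0 (no effect) to 100 (complete control) are visual comparisons with controls, taken 13 to 15 days after compound was applied into floodwater 3 cm deep around 2-leaf plants.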
# sedge, umbrella = test: Test B flooded paddy test; assay type: in vivo, Cyperus difformis; details: Flood, 250 g ai/ha; 0 to 100 scale where 0 is no effect and 100 is complete control
# Summary of the method: as §2
# Heteranthera limosa = test: Test B flooded paddy test; assay type: in vivo; details: Flood, 250 g ai/ha; 0 to 100 scale where 0 is no effect and 100 is complete control
# Summary of the method: as §2
# barnyardgrass [2] = test: Test B flooded paddy test; assay type: in vivo, Echinochloa crus-galli; details: Flood, 250 g ai/ha; 0 to 100 scale where 0 is no effect and 100 is complete control
# Summary of the method: as §2
# wheat, winter = test: Test C postemergence; assay type: in vivo, Triticum aestivum
# Summary of the method: (§3)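 Injury was assessed visually against controls 13 to 15 days after application, with 0 meaning no effect and 100 full control; missing entries are shown as a dash. Preemergence sprays hit seeded loam–sand soil, postemergence sprays hit 1- to 4-leaf plants.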
# galium = test: Test C postemergence; assay type: in vivo, Galium aparine
# Summary of the method: as §3
# lambsquarters = test: Test C postemergence; assay type: in vivo, Chenopodium album
# Summary of the method: as §3
# morningglory = test: Test C postemergence; assay type: in vivo, Ipomoea coccinea
# Summary of the method: as §3
# yellow nutsedge = test: Test C postemergence; assay type: in vivo, Cyperus esculentus
# Summary of the method: as §3
# ragweed = test: Test C postemergence; assay type: in vivo, Ambrosia elatior
# Summary of the method: as §3
# velvetleaf = test: Test C postemergence; assay type: in vivo, Abutilon theophrasti
# Summary of the method: as §3
# chickweed = test: Test C postemergence; assay type: in vivo, Stellaria media
# Summary of the method: as §3
# [3] = 0 to 100 scale where 0 is no effect and 100 is complete control
# [4] = 16 g ai/ha, postemergence, 0 is no effect, 100 is complete control
# [5] = 31 g ai/ha, postemergence, visual rating, scale 0 to 100 (0 no effect, 100 complete control), 13 to 15 days
# [6] = 125 g ai/ha, postemergence, visual rating, scale 0 to 100 (0 no effect, 100 complete control)
# [7] = Postemergence, 62 g ai/ha, scale 0 to 100 (0 no effect, 100 complete control), 13 to 15 days
# [8] = 125 g ai/ha, 0 to 100 scale where 0 is no effect and 100 is complete control
# [9] = 0 to 100 scale, 0 no effect, 100 complete control, approx. 10 days
# [10] = Postemergence, 31 g ai/ha, scale 0 to 100 (0 no effect, 100 complete control), 13 to 15 days
# [11] = Postemergence, 62 g ai/ha, scale 0 to 100 (0 no effect, 100 complete control)
structure (smiles),measurement,setting,value
Fc1cnc(Oc2ccccc2-n2cc(C(F)F)cn2)nc1 [Compound 228],"Barnyardgrass plant response rating (0 to 100 scale, 0 is no effect, 100 is complete control)",barnyardgrass [1]; 125 g ai/ha,20
same,Barnyardgrass plant response rating,barnyardgrass [1]; [3],100
same,"Foxtail, Giant plant response rating (0 to 100 scale)",giant foxtail; 125 g ai/ha,90
same,"Foxtail, Giant plant response rating",giant foxtail; [3],100
same,Wheat plant response rating (0 to 100 scale),wheat; 125 g ai/ha,0
same,Wheat plant response rating,wheat; [3],0
same,Corn plant response rating (0 to 100 scale),corn; 125 g ai/ha,0
same,Corn plant response rating,corn; [3],40
same,"Plant response rating, Rice",rice,0
same,"Plant response rating, Sedge, Umbrella","sedge, umbrella",60
same,"Plant response rating, Ducksalad",Heteranthera limosa,75
same,"Plant response rating, Barnyardgrass",barnyardgrass [2],0
same,"Plant response rating (0 to 100), Wheat","wheat, winter; [4]",0
same,Wheat plant response rating,"wheat, winter; [5]",0
same,"Plant response rating, Wheat","wheat, winter; [6]",0
same,"Plant response rating, Wheat","wheat, winter; [7]",0
same,"Plant response rating (0 to 100), Galium",galium; [4],50
same,Galium plant response rating,galium; [5],50
same,"Plant response rating, Galium",galium; [6],80
same,"Plant response rating, Galium",galium; [7],70
same,"Plant response rating (0 to 100), Lambsquarters",lambsquarters; [4],25
same,Lambsquarters plant response rating,lambsquarters; [5],40
same,"Plant response rating, Lambsquarters",lambsquarters; [6],65
same,"Plant response rating, Lambsquarters",lambsquarters; [7],75
same,"Plant response rating (0 to 100), Morningglory",morningglory; [4],5
same,Morningglory plant response rating,morningglory; [5],10
same,"Plant response rating, Morningglory",morningglory; [6],35
same,"Plant response rating, Morningglory",morningglory; [7],25
same,"Plant response rating (0 to 100), Nutsedge, Yellow",yellow nutsedge; [4],0
same,"Nutsedge, Yellow plant response rating",yellow nutsedge; [5],0
same,"Plant response rating, Nutsedge, Yellow",yellow nutsedge; [6],5
same,"Plant response rating, Nutsedge, Yellow",yellow nutsedge; [7],5
same,"Plant response rating (0 to 100), Ragweed",ragweed; [4],5
same,Ragweed plant response rating,ragweed; [5],20
same,"Plant response rating, Ragweed",ragweed; [6],45
same,"Plant response rating, Ragweed",ragweed; [7],55
same,"Plant response rating (0 to 100), Velvetleaf",velvetleaf; [4],15
same,Velvetleaf plant response rating,velvetleaf; [5],55
same,"Plant response rating, Velvetleaf",velvetleaf; [6],70
same,"Plant response rating, Velvetleaf",velvetleaf; [7],60
same,"Plant response rating (0 to 100), Chickweed",chickweed; [4],10
same,Chickweed plant response rating,chickweed; [5],30
same,"Plant response rating, Chickweed",chickweed; [6],50
same,"Plant response rating, Chickweed",chickweed; [7],50
N#Cc1cccc(Oc2ncc(Cl)cn2)c1-n1cc(Cl)cn1 [Compound 72],"Plant response rating, Barnyardgrass",barnyardgrass [1]; [8],80
same,Barnyardgrass plant response rating,barnyardgrass [1]; [9],100
same,"Plant response rating, Foxtail, Giant",giant foxtail; [8],100
same,"Foxtail, Giant plant response rating",giant foxtail; [9],100
same,"Plant response rating, Wheat",wheat; [8],20
same,Wheat plant response rating,wheat; [9],60
same,"Plant response rating, Corn",corn; [8],30
same,Corn plant response rating,corn; [9],50
same,"Plant response rating, Rice",rice,0
same,"Plant response rating, Sedge, Umbrella","sedge, umbrella",85
same,"Plant response rating, Ducksalad",Heteranthera limosa,75
same,"Plant response rating, Barnyardgrass",barnyardgrass [2],0
same,"Plant response rating (0 to 100), Wheat","wheat, winter; 125 g ai/ha, postemergence",0
same,"Plant response rating (0 to 100), Wheat","wheat, winter; 250 g ai/ha, postemergence",5
same,"Plant response rating, Wheat","wheat, winter; [10]",0
same,"Plant response rating, Wheat","wheat, winter; [11]",0
same,"Plant response rating (0 to 100), Galium","galium; 125 g ai/ha, postemergence",95
same,"Plant response rating (0 to 100), Galium","galium; 250 g ai/ha, postemergence",95
same,"Plant response rating, Galium",galium; [10],75
same,"Plant response rating, Galium",galium; [11],80
same,"Plant response rating (0 to 100), Lambsquarters","lambsquarters; 125 g ai/ha, postemergence",85
same,"Plant response rating (0 to 100), Lambsquarters","lambsquarters; 250 g ai/ha, postemergence",98
same,"Plant response rating, Lambsquarters",lambsquarters; [10],75
same,"Plant response rating, Lambsquarters",lambsquarters; [11],75
same,"Plant response rating (0 to 100), Morningglory","morningglory; 125 g ai/ha, postemergence",85
same,"Plant response rating (0 to 100), Morningglory","morningglory; 250 g ai/ha, postemergence",90
same,"Plant response rating, Morningglory",morningglory; [10],75
same,"Plant response rating, Morningglory",morningglory; [11],75
same,"Plant response rating (0 to 100), Nutsedge, Yellow","yellow nutsedge; 125 g ai/ha, postemergence",0
same,"Plant response rating (0 to 100), Nutsedge, Yellow","yellow nutsedge; 250 g ai/ha, postemergence",10
same,"Plant response rating, Nutsedge, Yellow",yellow nutsedge; [10],0
same,"Plant response rating, Nutsedge, Yellow",yellow nutsedge; [11],0
same,"Plant response rating (0 to 100), Ragweed","ragweed; 125 g ai/ha, postemergence",60
same,"Plant response rating (0 to 100), Ragweed","ragweed; 250 g ai/ha, postemergence",60
same,"Plant response rating, Ragweed",ragweed; [10],40
same,"Plant response rating, Ragweed",ragweed; [11],40
same,"Plant response rating (0 to 100), Velvetleaf","velvetleaf; 125 g ai/ha, postemergence",55
same,"Plant response rating (0 to 100), Velvetleaf","velvetleaf; 250 g ai/ha, postemergence",75
same,"Plant response rating, Velvetleaf",velvetleaf; [10],40
same,"Plant response rating, Velvetleaf",velvetleaf; [11],40
same,"Plant response rating (0 to 100), Chickweed","chickweed; 125 g ai/ha, postemergence",80
same,"Plant response rating (0 to 100), Chickweed","chickweed; 250 g ai/ha, postemergence",80
same,"Plant response rating, Chickweed",chickweed; [10],50
same,"Plant response rating, Chickweed",chickweed; [11],65
Fc1cnc(Oc2ccccc2-n2cc(C(F)(F)F)cn2)nc1 [Compound 47],"Plant response rating, Barnyardgrass",barnyardgrass [1]; [8],20
same,Barnyardgrass plant response rating,barnyardgrass [1]; [9],100
same,"Plant response rating, Foxtail, Giant",giant foxtail; [8],100
same,"Foxtail, Giant plant response rating",giant foxtail; [9],100
same,"Plant response rating, Wheat",wheat; [8],0
same,Wheat plant response rating,wheat; [9],40
same,"Plant response rating, Corn",corn; [8],0
same,Corn plant response rating,corn; [9],90
same,"Plant response rating, Rice",rice,35
same,"Plant response rating, Sedge, Umbrella","sedge, umbrella",70
same,"Plant response rating, Ducksalad",Heteranthera limosa,95
same,"Plant response rating, Barnyardgrass",barnyardgrass [2],10
same,"Plant response rating (0 to 100), Wheat","wheat, winter; 125 g ai/ha, postemergence",0
same,"Plant response rating (0 to 100), Wheat","wheat, winter; 250 g ai/ha, postemergence",0
same,"Plant response rating, Wheat","wheat, winter; [10]",0
same,"Plant response rating, Wheat","wheat, winter; [11]",0
same,"Plant response rating (0 to 100), Galium","galium; 125 g ai/ha, postemergence",55
same,"Plant response rating (0 to 100), Galium","galium; 250 g ai/ha, postemergence",65
same,"Plant response rating, Galium",galium; [10],35
same,"Plant response rating, Galium",galium; [11],50
same,"Plant response rating (0 to 100), Lambsquarters","lambsquarters; 125 g ai/ha, postemergence",60
same,"Plant response rating (0 to 100), Lambsquarters","lambsquarters; 250 g ai/ha, postemergence",90
same,"Plant response rating, Lambsquarters",lambsquarters; [10],30
same,"Plant response rating, Lambsquarters",lambsquarters; [11],45
same,"Plant response rating (0 to 100), Morningglory","morningglory; 125 g ai/ha, postemergence",70
same,"Plant response rating (0 to 100), Morningglory","morningglory; 250 g ai/ha, postemergence",75
same,"Plant response rating, Morningglory",morningglory; [10],20
same,"Plant response rating, Morningglory",morningglory; [11],70
same,"Plant response rating (0 to 100), Nutsedge, Yellow","yellow nutsedge; 125 g ai/ha, postemergence",0
same,"Plant response rating (0 to 100), Nutsedge, Yellow","yellow nutsedge; 250 g ai/ha, postemergence",10
same,"Plant response rating, Nutsedge, Yellow",yellow nutsedge; [10],0
same,"Plant response rating, Nutsedge, Yellow",yellow nutsedge; [11],0
same,"Plant response rating (0 to 100), Ragweed","ragweed; 125 g ai/ha, postemergence",50
same,"Plant response rating (0 to 100), Ragweed","ragweed; 250 g ai/ha, postemergence",85
same,"Plant response rating, Ragweed",ragweed; [10],20
same,"Plant response rating, Ragweed",ragweed; [11],50
same,"Plant response rating (0 to 100), Velvetleaf","velvetleaf; 125 g ai/ha, postemergence",70
same,"Plant response rating (0 to 100), Velvetleaf","velvetleaf; 250 g ai/ha, postemergence",100
same,"Plant response rating, Velvetleaf",velvetleaf; [10],45
same,"Plant response rating, Velvetleaf",velvetleaf; [11],50
same,"Plant response rating (0 to 100), Chickweed","chickweed; 125 g ai/ha, postemergence",50
same,"Plant response rating (0 to 100), Chickweed","chickweed; 250 g ai/ha, postemergence",50
same,"Plant response rating, Chickweed",chickweed; [10],5
same,"Plant response rating, Chickweed",chickweed; [11],5
